Measurements published in ChEMBL document CHEMBL4000195, “Design and synthesis of novel 7-aminosubstituted pyrido[2,3-b]pyrazines exhibiting anti-breast cancer activity” (Eur J Med Chem, 2017).
The source made the active and inactive calls. No cut-off for these calls is given here.

Columns and labels:
[1] = tested on: T47D; assay: Cytotoxicity against human T47D cells at 5 uM by MTT assay; type: functional
[2] = tested on: MDA-MB-231; assay: Cytotoxicity against human MDA-MB-231 cells at 5 uM by MTT assay; type: functional
[3] = tested on: MCF7; assay: Cytotoxicity against human MCF7 cells by MTT assay; type: functional, cell-based
[4] = tested on: T47D; assay: Cytotoxicity against human T47D cells by MTT assay; type: functional, cell-based
[5] = target: T1, Serine/threonine-protein kinase haspin (Homo sapiens) (UniProt Q8TF76); assay: Inhibition of human HASPIN
T1 sequence (whole entry): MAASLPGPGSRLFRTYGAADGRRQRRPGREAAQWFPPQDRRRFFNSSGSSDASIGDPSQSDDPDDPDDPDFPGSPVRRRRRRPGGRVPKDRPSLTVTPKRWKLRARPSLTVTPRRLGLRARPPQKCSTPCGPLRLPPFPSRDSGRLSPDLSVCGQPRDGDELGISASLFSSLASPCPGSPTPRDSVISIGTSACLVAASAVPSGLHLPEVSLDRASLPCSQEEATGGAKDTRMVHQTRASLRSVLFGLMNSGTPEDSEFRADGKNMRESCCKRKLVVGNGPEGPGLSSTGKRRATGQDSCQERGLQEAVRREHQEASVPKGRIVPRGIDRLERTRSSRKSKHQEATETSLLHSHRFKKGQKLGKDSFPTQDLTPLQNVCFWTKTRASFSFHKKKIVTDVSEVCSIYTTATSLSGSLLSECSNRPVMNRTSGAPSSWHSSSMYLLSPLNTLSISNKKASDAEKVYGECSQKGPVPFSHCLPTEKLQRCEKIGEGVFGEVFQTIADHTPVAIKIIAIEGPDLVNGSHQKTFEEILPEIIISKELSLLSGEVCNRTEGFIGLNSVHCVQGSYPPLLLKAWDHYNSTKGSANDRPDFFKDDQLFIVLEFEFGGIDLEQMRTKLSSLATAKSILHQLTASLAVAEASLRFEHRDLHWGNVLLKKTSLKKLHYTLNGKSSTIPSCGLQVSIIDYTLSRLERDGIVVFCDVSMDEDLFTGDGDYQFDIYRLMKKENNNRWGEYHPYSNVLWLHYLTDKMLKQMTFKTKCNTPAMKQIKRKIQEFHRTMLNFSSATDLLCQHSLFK

[6] = target: Phosphatidylinositol 4,5-bisphosphate 3-kinase catalytic subunit alpha isoform (Homo sapiens, UniProt P42336); assay: Inhibition of PI3Kalpha catalytic domain (unknown origin) at 10 uM using PIP2 liposomes as substrate in presence of biotin-labeled PIP3 and GST-GRP1-PH by streptavidin-HRP based assays
Chain of Phosphatidylinositol 4,5-bisphosphate 3-kinase catalytic subunit alpha isoform (P42336 whole entry, the tested form may be a part, canonical isoform): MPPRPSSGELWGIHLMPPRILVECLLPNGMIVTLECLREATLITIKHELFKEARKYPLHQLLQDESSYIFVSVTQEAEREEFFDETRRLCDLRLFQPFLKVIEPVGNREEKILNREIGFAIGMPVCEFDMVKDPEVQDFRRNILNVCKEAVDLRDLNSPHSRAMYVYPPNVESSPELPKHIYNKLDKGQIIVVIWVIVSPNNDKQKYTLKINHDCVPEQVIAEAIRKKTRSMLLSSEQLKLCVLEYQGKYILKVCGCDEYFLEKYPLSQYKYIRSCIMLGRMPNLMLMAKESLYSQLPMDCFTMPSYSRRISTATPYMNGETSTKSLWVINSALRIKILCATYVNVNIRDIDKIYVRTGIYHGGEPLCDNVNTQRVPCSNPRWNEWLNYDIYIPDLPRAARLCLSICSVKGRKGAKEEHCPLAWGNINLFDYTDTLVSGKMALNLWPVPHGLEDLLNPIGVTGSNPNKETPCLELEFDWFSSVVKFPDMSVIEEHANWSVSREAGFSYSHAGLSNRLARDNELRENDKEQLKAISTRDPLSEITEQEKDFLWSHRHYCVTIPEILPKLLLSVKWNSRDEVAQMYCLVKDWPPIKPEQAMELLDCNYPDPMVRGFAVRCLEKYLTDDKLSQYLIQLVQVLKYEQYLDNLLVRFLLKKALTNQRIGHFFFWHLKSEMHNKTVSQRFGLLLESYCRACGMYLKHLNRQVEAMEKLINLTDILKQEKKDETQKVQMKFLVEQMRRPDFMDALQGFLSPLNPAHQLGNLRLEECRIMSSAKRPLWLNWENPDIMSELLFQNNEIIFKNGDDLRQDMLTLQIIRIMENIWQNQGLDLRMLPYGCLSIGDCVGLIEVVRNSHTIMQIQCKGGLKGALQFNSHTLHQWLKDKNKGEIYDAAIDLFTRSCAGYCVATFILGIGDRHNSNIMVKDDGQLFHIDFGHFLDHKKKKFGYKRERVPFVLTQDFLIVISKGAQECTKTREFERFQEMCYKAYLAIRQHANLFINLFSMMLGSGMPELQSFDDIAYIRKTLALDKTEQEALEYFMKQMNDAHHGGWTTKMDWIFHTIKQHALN

[7] = Cmax in NOD/SCID mouse at 10 mg/kg, ip administered as single dose by LC-MS/MS method; type: ADME, organism-based; parameters: dose 10 mg/kg, route intraperitoneal; details: in vivo
[8] = Tmax in NOD/SCID mouse at 10 mg/kg, ip administered as single dose by LC-MS/MS method; type: ADME, organism-based; details: in vivo
[9] = AUC (0 to 24 hrs) in NOD/SCID mouse at 10 mg/kg, ip administered twice by LC-MS/MS method; type: ADME, organism-based; parameters: time < 24 hr, dose 10 mg/kg, route intraperitoneal; details: in vivo
[10] = tested on: Mus musculus; assay: Toxicity in NOD/SCID mouse assessed as phenotypic changes at 10 mg/kg, ip administered once daily for 18 days measured after 1 hr last dose; type: organism-based; details: in vivo
[11] = tested on: Mus musculus; assay: Toxicity in NOD/SCID mouse assessed as change in body weight at 10 mg/kg, ip administered once daily for 18 days measured after 1 hr last dose; type: organism-based; details: in vivo
[12] = tested on: Mus musculus; assay: In vivo inhibition of ERK1/2 phosphorylation at Thr202/Tyr204 residue in NOD/SCID mouse tumor xenografted with HER2-amplified human HCC1954 cells at 10 mg/kg, ip administered once daily for 18 days measured after 1 hr last dose by […]; type: functional, organism-based
[13] = tested on: HCC1954; assay: Anti-tumor activity against HER2-amplified human HCC1954 cells xenografted in NOD/SCID mouse assessed as proliferation index at 10 mg/kg, ip administered once daily for 18 days measured after 1 hr last dose by Ki-67/hematoxylin and eosin staining based microscopic analysis (reference value: 78.4 +/- 14.8%); type: functional
[14] = target: Tyrosine-protein kinase BTK (Homo sapiens) (UniProt Q06187); assay: Inhibition of human wild type full length BTK (M1 to S659 residues) expressed in mammalian expression system at 10 uM by KinomeScan method relative to control
[15] = target: RAC-alpha serine/threonine-protein kinase (Homo sapiens) (UniProt P31749); assay: Inhibition of human wild type partial length AKT1 expressed in bacterial expression system at 10 uM by KinomeScan method relative to control
Chain of RAC-alpha serine/threonine-protein kinase (Homo sapiens) (P31749 whole entry, the tested form may be a part): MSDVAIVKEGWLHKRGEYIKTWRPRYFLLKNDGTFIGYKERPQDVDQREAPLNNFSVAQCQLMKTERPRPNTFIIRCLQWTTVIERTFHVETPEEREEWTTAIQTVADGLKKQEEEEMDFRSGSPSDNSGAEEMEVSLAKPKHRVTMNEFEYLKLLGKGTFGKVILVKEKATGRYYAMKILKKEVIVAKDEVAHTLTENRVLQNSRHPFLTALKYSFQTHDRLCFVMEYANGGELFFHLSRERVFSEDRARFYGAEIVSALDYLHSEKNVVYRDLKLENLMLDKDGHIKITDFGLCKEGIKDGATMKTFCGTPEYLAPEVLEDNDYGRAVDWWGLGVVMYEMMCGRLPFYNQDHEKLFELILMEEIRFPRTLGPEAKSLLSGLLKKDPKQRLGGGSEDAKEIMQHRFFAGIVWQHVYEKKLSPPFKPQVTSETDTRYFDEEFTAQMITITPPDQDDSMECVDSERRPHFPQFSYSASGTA

[16] = target: Mitogen-activated protein kinase 3 (Homo sapiens) (UniProt P27361); assay: Inhibition of human wild type full length ERK1 (M1 to P379 residues) expressed in bacterial expression system at 10 uM by KinomeScan method relative to control
[17] = target: Tyrosine-protein kinase Lck (Homo sapiens) (UniProt P06239); assay: Inhibition of human wild type partial length LCK (R207 to P509 residues) expressed in bacterial expression system at 10 uM by KinomeScan method relative to control
Chain of Tyrosine-protein kinase Lck (Homo sapiens) (P06239 2-509 limits assumed): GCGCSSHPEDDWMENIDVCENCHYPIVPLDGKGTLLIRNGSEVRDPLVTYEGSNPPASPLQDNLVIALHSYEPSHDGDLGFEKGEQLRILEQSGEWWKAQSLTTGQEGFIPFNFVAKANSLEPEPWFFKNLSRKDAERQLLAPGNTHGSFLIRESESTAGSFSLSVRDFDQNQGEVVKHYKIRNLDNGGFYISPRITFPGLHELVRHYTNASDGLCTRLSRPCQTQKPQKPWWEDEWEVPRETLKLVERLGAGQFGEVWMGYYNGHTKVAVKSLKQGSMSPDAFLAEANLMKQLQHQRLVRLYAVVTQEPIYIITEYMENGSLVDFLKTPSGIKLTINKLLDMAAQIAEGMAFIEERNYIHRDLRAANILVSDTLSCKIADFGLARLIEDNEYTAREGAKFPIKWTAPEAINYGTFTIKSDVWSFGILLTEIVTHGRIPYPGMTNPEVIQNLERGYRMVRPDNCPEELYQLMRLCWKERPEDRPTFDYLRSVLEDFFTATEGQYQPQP

[18] = target: Muscle, skeletal receptor tyrosine-protein kinase (Homo sapiens) (UniProt O15146); assay: Inhibition of human wild type partial length MUSK (M553 to V869 residues) expressed in bacterial expression system at 10 uM by KinomeScan method relative to control
Chain of Muscle, skeletal receptor tyrosine-protein kinase (Homo sapiens) (O15146 whole entry, the tested form may be a part): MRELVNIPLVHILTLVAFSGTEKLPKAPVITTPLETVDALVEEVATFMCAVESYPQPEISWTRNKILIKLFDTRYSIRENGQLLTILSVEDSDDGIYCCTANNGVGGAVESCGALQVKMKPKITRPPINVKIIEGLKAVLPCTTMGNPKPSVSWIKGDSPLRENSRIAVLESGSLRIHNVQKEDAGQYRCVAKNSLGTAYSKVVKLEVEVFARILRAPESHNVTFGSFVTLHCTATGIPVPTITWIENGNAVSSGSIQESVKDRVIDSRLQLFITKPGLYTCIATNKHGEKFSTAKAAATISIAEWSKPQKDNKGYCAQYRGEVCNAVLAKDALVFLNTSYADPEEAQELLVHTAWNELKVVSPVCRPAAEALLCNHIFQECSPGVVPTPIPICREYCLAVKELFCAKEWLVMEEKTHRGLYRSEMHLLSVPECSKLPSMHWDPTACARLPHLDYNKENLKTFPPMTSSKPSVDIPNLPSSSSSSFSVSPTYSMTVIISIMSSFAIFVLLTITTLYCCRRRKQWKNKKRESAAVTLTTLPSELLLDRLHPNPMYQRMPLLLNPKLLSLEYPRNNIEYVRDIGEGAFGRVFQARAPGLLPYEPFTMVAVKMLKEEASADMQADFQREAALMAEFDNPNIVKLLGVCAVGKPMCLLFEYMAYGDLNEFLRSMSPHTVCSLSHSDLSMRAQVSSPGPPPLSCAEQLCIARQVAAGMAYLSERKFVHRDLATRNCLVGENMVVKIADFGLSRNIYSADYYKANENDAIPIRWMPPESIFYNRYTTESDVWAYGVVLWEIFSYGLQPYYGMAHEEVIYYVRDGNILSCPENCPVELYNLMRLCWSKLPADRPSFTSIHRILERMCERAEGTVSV

[19] = target: Proto-oncogene tyrosine-protein kinase Src (Homo sapiens) (UniProt P12931); assay: Inhibition of human wild type partial length SRC (L240 to L536 residues) expressed in bacterial expression system at 10 uM by KinomeScan method relative to control
Chain of Proto-oncogene tyrosine-protein kinase Src (Homo sapiens) (P12931 2-536 limits assumed): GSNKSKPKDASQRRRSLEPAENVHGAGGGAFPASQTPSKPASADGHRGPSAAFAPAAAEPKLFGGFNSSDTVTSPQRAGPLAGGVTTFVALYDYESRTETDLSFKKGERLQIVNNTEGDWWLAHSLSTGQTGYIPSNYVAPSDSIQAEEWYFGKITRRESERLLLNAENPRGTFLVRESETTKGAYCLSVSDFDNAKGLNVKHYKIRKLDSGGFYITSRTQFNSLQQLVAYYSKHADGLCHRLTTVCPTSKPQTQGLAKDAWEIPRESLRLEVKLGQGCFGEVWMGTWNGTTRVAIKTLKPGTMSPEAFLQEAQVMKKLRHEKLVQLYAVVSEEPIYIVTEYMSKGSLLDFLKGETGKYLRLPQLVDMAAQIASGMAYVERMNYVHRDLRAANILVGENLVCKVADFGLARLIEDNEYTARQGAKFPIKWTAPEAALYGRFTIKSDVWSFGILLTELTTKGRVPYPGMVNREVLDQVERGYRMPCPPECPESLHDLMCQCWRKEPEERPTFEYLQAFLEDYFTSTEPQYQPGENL

[20] = target: Tyrosine-protein kinase Tec (Homo sapiens) (UniProt P42680); assay: Inhibition of human wild type partial length TEC (L341 to D620 residues) expressed in bacterial expression system at 10 uM by KinomeScan method relative to control
Chain of Tyrosine-protein kinase Tec (Homo sapiens) (P42680 whole entry, the tested form may be a part): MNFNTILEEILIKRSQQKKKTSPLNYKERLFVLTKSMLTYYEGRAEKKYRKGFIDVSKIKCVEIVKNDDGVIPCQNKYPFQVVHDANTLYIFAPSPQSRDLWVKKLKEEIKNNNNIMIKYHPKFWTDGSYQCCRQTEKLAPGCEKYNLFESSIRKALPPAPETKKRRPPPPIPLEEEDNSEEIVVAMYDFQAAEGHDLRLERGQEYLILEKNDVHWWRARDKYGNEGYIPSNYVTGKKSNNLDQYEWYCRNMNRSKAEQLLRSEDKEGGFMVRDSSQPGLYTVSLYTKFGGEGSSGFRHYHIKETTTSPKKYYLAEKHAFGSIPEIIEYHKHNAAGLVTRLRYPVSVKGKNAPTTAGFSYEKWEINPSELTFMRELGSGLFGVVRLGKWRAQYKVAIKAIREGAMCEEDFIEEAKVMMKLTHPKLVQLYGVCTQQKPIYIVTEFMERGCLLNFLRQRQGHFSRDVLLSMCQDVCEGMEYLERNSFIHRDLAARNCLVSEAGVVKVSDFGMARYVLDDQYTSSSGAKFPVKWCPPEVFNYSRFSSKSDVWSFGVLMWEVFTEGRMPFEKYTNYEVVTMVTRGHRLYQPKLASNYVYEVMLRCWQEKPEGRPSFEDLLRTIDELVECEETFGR

[21] = target: Vascular endothelial growth factor receptor 2 (Homo sapiens) (UniProt P35968); assay: Inhibition of human wild type partial length VEGFR2 (R787 to P1253 residues) expressed in mammalian expression system at 10 uM by KinomeScan method relative to control
[22] = target: Tyrosine-protein kinase ZAP-70 (Homo sapiens) (UniProt P43403); assay: Inhibition of human wild type partial length ZAP70 (D20 to G299 residues) expressed in mammalian expression system at 10 uM by KinomeScan method relative to control
Chain of Tyrosine-protein kinase ZAP-70 (Homo sapiens) (P43403 whole entry, the tested form may be a part): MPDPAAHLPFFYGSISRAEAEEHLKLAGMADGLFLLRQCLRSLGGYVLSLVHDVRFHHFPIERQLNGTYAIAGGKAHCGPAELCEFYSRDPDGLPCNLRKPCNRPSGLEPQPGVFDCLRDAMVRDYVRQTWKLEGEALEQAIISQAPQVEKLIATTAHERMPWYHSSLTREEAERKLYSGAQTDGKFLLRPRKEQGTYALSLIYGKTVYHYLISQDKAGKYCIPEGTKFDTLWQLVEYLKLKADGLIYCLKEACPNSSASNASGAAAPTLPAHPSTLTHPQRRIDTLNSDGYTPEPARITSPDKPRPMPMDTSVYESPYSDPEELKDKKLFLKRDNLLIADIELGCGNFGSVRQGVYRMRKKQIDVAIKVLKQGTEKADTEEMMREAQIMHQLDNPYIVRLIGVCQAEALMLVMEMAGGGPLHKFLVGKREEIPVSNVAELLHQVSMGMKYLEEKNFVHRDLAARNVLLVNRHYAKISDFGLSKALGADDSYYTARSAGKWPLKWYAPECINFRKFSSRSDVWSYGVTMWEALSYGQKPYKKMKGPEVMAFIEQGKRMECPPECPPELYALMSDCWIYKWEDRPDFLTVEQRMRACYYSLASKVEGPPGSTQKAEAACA

## Cc1nc2nc(Sc3ccccc3)cnc2cc1NC(=O)Nc1ccccc1
[1]
  Activity: >50%
[2]
  Activity: >50%
[3]
  IC50: 3.1 µM
[4]
  IC50: 5.7 µM
[5]
  inhibition: inactive
[6]
  inhibition: Active
[7]
  Cmax: 4.3 to 4.32 µM
[8]
  Tmax: 2 h
[9]
  AUC(0-t) at 24 h: 70.8 µM·h
[10]
  Activity: Non-Toxic
[11]
  Activity: Non-Toxic
[12]
  inhibition: Active
[13]
  Activity_index: 25.7%
[14]
  inhibition: 10%
[15]
  inhibition: 3%
[16]
  inhibition: 11%
[17]
  inhibition: 2%
[18]
  inhibition: 0%
[19]
  inhibition: 3%
[20]
  inhibition: 9%
[21]
  inhibition: 1%
[22]
  inhibition: 0%
